Source: US20240316017A1, “NOVEL PYRIDINE DERIVATIVE COMPOUND AS RON INHIBITOR” (LG CHEM, LTD., priority 2021, published 2024)

How the values were obtained:
RON = RON (Homo sapiens, UniProt Q04912); assay: Evaluation of inhibitory activity against RON (TR-FRET kinase assay); assay type: biochemical; settings: RON protein, ULight-labeled Poly GT substrate
Protocol: In order to measure the inhibitory activity of each of the compounds of Examples against RON, the IC50 of each of the compounds was measured using Time-resolved fluorescence energy transfer (TR-FRET).
(§1) Specifically, the compound was prepared to a concentration of 1 mM in 100% DMSO and was diluted 10 times in a stepwise manner through 3-fold dilution. The compound (2 ul) diluted in a stepwise manner was added to a 96-well-plate containing 48 ul of a 1× kinase reaction buffer (50 mM HEPES (pH 7.4), 0.01% Tween-20, 5 mM DTT, 0.5 mM Na3VO4, 2 mM EGTA, 10 mM MgCl2).
The RON protein was diluted to a concentration of 49.3 nM in a RON storage buffer (50 mM Tris-HCl (pH 7.5), 150 mM NaCl, 0.5 mM EDTA, 0.02% Triton X-100), and then diluted again to a concentration of 0.4 nM in a 1×kinase reaction buffer. As a substrate cocktail, a RON-specific substrate mixed solution (40 uM ULight-labeled Poly GT, 100 nM ATP) was prepared at a concentration 2 times the final reaction concentration.
(§2) Thereafter, a 384-well-plate was prepared, and 2.5 μl of each of the diluted compounds of Examples was added to a corresponding well of experimental group wells, and 2.5 μl of a 4% DMSO solution was dispensed into high control wells and low control wells.
(§3) Thereafter, 2.5 μL of 0.4 nM RON was dispensed into each of the high control wells and the experimental group wells, and 2.5 μL of the 1× kinase reaction buffer was added to the low control wells, and all the wells were centrifuged at room temperature for 40 seconds at 1,000 RPM, and then incubated at room temperature for 20-30 minutes. Then, 5 uL of the substrate cocktail (2×) was dispensed into each well, and all the wells were centrifuged at room temperature for 40 seconds at 1,000 RPM, and then incubated at room temperature for 60 minutes. Thereafter, 5 uL of 30 mM EDTA was added to each well to terminate the reaction, and all the wells were then incubated again at room temperature for 5 minutes. Thereafter, 5 uL of a 4× phosphotyrosine antibody (Perkin Elmer) containing europium was added to each well, and all the wells were then incubated at room temperature for 60 minutes. After the incubation, the 384-well-plate was read with the Vison plate reader. In this case, the excitation wavelength was 340 nm, and the emission wavelength was 620 nm and 665 nm. The IC50 value of each compound of Examples was derived using the GraphPd Prism7 program.

cMET = cMET (Homo sapiens, UniProt P08581); assay: Evaluation of inhibitory activity against MET (TR-FRET kinase assay); assay type: biochemical; settings: cMET protein, TK peptide substrate
Protocol: In addition, in order to measure the enzyme activity inhibition for cMET, the evaluation was performed in the same manner as the enzyme activity inhibition measurement experiment for RON.
as §1, with “7.4), 0.05% BSA, 0.005%” for “7.4), 0.01%”, “Tween-20, 1” for “Tween-20, 5”, “mM MnCl2, 20” for “mM Na3VO4, 2 mM EGTA, 10”
The cMET protein was diluted to a concentration of 263 nM in a cMET storage buffer (50 mM Tris-HCl (pH 7.5), 150 mM NaCl, 0.05% Brij35, 1 mM DTT, 10% Glycerol), and then diluted again to a concentration of 2 nM in a 1× kinase reaction buffer. As a substrate cocktail, a MET-specific substrate mixed solution (5 uM TK peptide, 10 mM ATP) was prepared at a concentration 2 times the final reaction concentration.
as §2
as §3, with “of 2” for “of 0.4”, “nM cMET” for “nM RON”, “the 1×kinase” for “the 1× kinase”, “of 90” for “of 30”

Chain of RON (Q04912 25-1400, species assumed): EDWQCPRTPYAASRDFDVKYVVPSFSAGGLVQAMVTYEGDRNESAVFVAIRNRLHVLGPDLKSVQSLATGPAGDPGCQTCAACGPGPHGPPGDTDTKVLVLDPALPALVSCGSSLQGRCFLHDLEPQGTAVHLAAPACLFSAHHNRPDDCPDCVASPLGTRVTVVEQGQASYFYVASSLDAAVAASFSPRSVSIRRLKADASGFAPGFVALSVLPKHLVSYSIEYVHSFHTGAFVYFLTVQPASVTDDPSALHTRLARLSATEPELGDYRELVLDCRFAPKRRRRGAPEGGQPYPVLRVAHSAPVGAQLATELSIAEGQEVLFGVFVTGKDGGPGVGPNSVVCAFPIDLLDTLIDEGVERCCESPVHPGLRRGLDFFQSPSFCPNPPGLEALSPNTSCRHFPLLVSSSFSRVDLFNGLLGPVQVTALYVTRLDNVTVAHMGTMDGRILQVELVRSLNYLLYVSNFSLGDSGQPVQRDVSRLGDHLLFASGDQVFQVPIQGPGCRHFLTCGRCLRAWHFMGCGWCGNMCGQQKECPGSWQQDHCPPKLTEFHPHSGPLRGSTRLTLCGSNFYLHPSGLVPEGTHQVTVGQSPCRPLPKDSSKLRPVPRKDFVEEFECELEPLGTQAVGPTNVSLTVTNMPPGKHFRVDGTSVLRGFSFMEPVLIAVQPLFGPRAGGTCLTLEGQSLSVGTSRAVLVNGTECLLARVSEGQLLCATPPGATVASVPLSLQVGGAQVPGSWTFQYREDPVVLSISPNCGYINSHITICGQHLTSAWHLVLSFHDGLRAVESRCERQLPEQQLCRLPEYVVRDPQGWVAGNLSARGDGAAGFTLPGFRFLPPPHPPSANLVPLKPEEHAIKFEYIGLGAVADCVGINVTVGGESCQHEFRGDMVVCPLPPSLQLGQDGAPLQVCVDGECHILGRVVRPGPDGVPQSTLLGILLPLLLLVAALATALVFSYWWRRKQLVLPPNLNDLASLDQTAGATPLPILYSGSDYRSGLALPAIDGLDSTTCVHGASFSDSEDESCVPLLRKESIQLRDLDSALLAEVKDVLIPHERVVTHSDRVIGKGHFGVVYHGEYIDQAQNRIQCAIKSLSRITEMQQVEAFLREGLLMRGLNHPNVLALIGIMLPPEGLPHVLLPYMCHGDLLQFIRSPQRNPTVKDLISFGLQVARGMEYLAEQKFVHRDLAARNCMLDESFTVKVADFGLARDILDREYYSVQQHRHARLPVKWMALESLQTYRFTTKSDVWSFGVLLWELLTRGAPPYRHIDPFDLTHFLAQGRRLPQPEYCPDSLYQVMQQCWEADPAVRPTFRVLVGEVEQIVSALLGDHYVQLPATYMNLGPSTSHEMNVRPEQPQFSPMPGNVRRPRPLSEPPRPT
Chain of cMET (P08581 25-1390): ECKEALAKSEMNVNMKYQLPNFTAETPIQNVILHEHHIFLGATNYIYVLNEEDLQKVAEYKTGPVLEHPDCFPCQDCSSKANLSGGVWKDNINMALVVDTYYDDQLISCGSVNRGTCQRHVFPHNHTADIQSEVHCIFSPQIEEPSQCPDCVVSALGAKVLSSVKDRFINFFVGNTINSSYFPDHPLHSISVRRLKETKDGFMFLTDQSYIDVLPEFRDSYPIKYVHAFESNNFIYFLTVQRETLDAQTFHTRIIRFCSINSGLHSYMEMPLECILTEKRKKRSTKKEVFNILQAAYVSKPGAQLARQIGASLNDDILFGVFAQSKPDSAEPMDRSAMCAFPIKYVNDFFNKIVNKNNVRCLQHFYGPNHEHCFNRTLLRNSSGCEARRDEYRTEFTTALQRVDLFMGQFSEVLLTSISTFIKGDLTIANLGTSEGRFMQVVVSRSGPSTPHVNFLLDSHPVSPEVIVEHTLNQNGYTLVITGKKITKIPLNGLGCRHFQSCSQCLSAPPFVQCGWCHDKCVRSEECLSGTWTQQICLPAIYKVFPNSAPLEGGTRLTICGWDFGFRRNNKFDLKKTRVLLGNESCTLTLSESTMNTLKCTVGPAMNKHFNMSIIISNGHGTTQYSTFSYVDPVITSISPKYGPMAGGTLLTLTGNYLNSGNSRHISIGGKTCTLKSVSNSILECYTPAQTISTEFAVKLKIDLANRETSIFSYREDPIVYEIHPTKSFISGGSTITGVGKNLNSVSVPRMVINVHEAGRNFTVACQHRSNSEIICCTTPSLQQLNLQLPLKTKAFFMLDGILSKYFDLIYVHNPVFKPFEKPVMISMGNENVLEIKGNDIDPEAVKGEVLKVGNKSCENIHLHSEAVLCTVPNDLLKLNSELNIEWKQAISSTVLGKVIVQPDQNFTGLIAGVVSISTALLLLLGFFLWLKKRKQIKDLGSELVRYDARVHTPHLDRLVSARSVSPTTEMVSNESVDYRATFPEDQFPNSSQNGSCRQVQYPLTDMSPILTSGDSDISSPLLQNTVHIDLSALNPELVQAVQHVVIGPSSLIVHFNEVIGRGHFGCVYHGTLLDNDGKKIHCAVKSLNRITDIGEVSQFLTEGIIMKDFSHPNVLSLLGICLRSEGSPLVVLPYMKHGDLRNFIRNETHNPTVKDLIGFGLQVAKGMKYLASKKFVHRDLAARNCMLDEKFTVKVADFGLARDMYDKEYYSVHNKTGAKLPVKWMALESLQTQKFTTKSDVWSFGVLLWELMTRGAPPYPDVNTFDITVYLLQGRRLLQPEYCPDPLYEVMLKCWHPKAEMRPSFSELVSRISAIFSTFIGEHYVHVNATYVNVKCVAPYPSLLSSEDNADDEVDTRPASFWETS

| SMILES | IC50 (RON) | IC50 (cMET) |
| --- | --- | --- |
| Nc1cc(Oc2ccc(NC(=O)c3ncn(-c4ccccc4)c3C(F)(F)F)cc2F)ccn1 [Example 25] | 50 to 500 nM | > 5 µM |
| O=C(Nc1ccc(Oc2ccnc(NC(=O)C3CC3)c2)c(F)c1)c1ncn(-c2ccccc2)c1C(F)(F)F [Example 26, N-(4-((2-cyclopropanecarboxamido)pyridin-4-yl)oxy-3-fluorophenyl)-1-phenyl-5-(trifluoromethyl)-1H-imidazole-4-carboxamide] | 50 to 500 nM | > 5 µM |
| Nc1nccc(Oc2ccc(NC(=O)c3ncn(-c4ccccc4)c3C(F)(F)F)cc2F)c1N [Example 27] | 50 to 500 nM | > 5 µM |
| Nc1nccc(Oc2ccc(NC(=O)c3cnn(-c4ccccc4)c3C(F)(F)F)cc2F)c1N [Example 28] | 50 to 500 nM | > 5 µM |
| Nc1nccc(Oc2ccc(NC(=O)c3ncn(-c4ccccc4)c3C(F)(F)F)cc2F)c1I [Example 29, N-(4-((2-amino-3-iodopyridin-4-yl)oxy)-3-fluorophenyl)-1-phenyl-5-(trifluoromethyl)-1H-imidazole-4-carboxamide] | < 50 nM | 0.5 to 5 µM |
| Nc1nccc(Oc2ccc(NC(=O)c3cnc(-c4ccccc4)s3)cc2F)c1Cl [Example 30, N-(4-((2-amino-3-chloropyridin-4-yl)oxy)-3-fluorophenyl)-2-phenylthiazole-5-carboxamide] | 50 to 500 nM | > 5 µM |
| Cc1nc(-c2ccccc2)sc1C(=O)Nc1ccc(Oc2ccnc(N)c2Cl)c(F)c1 [Example 31, N-(4-((2-amino-3-chloropyridin-4-yl)oxy)-3-fluorophenyl)-4-methyl-2-phenylthiazole-5-carboxamide] | 500 to 5000 nM | > 5 µM |
| Nc1nccc(Oc2ccc(NC(=O)c3ncc(-c4ccccc4)s3)cc2F)c1Cl [Example 32, N-(4-((2-amino-3-chloropyridin-4-yl)oxy)-3-fluorophenyl)-5-phenylthiazole-2-carboxamide] | 500 to 5000 nM | > 5 µM |
| Nc1nccc(Oc2ccc(NC(=O)c3ccc(-c4ccccc4)s3)cc2F)c1Cl [Example 33, N-(4-((2-amino-3-chloropyridin-4-yl)oxy)-3-fluorophenyl)-5-phenylthiophene-2-carboxamide] | 50 to 500 nM | > 5 µM |
| CCOC(=O)Nc1c(Oc2ccc(NC(=O)c3cnn(-c4ccccc4)c3C(F)(F)F)cc2F)ccnc1N [Example 34, Ethyl(2-amino-4-(2-fluoro-4-(1-phenyl-5-(trifluoromethyl)-1H-pyrazole-4-carboxamido)phenoxy)pyridin-3-yl)carbamate] | 50 to 500 nM | > 5 µM |
| CCOC(=O)N(c1c(Oc2ccc(NC(=O)c3cnn(-c4ccccc4)c3CC)cc2F)ccnc1N)C(C)C [Example 35, Ethyl(2-amino-4-(4-(5-ethyl-1-phenyl-1H-pyrazole-4-carboxamido)-2-fluorophenoxy)pyridin-3-yl)(isopropyl)carbamate] | 500 to 5000 nM | > 5 µM |
| Nc1nccc(Oc2ccc(NC(=O)c3cnn(-c4ccccc4Cl)c3C(F)(F)F)cc2F)c1Cl [Example 36, N-(4-((2-amino-3-chloropyridin-4-yl)oxy)-3-fluorophenyl)-1-(2-chlorophenyl)-5-(trifluoromethyl)-1H-pyrazole-4-carboxamide] | 50 to 500 nM | 0.5 to 5 µM |
| Nc1nccc(Oc2ccc(NC(=O)c3cnn(-c4c(F)cccc4F)c3C(F)(F)F)cc2F)c1Cl [Example 37, N-(4-((2-amino-3-chloropyridin-4-yl)oxy)-3-fluorophenyl)-1-(2,6-difluorophenyl)-5-(trifluoromethyl)-1H-pyrazole-4-carboxamide] | < 50 nM | 0.5 to 5 µM |
| Nc1nccc(Oc2ccc(NC(=O)c3onc(-c4ccccc4)c3C(F)(F)F)cc2F)c1Cl [Example 38, N-(4-((2-amino-3-chloropyridin-4-yl)oxy)-3-fluorophenyl)-3-phenyl-4-(trifluoromethyl)isoxazole-5-carboxamide] | 50 to 500 nM | > 5 µM |
| Nc1nccc(Oc2ccc(NC(=O)c3ccn(-c4ccccc4)n3)cc2F)c1Cl [Example 39, N-(4-((2-amino-3-chloropyridin-4-yl)oxy)-3-fluorophenyl)-1-phenyl-1H-pyrazole-3-carboxamide] | 500 to 5000 nM | 0.5 to 5 µM |
| Nc1nccc(Oc2ccc(NC(=O)c3cn(-c4ccccc4)nn3)cc2F)c1Cl [Example 40, N-(4-((2-amino-3-chloropyridin-4-yl)oxy)-3-fluorophenyl)-1-phenyl-1H-1,2,3-triazole-4-carboxamide] | > 5000 nM | > 5 µM |
| Cc1c(C(=O)Nc2ccc(Oc3ccnc(N)c3Cl)c(F)c2)nnn1-c1ccccc1 [Example 41, N-(4-((2-amino-3-chloropyridin-4-yl)oxy)-3-fluorophenyl)-5-methyl-1-phenyl-1H-1,2,3-triazole-4-carboxamide] | 50 to 500 nM | > 5 µM |
| Cc1c(C(=O)Nc2ccc(Oc3ccnc(N)c3Cl)c(F)c2)nnn1-c1ccccc1F [Example 42, N-(4-((2-amino-3-chloropyridin-4-yl)oxy)-3-fluorophenyl)-1-(2-fluorophenyl)-5-methyl-1H-1,2,3-triazole-4-carboxamide] | 50 to 500 nM | 0.5 to 5 µM |
| Nc1nccc(Oc2ccc(NC(=O)c3cnn(-c4ccccc4)c3C(F)(F)F)cc2F)c1I [Example 43, N-(4-((2-amino-3-iodopyridin-4-yl)oxy)-3-fluorophenyl)-1-phenyl-5-(trifluoromethyl)-1H-pyrazole-4-carboxamide] | < 50 nM | > 5 µM |
| Nc1cc(Oc2ccc(NC(=O)c3cnn(-c4ccccc4)c3C(F)(F)F)cc2F)ccn1 [Example 44, N-(4-((2-aminopyridin-4-yl)oxy)-3-fluorophenyl)-1-phenyl-5-(trifluoromethyl)-1H-pyrazole-4-carboxamide] | 50 to 500 nM | > 5 µM |
| Nc1nccc(Oc2ccc(NC(=O)c3cnn(-c4ccccc4)c3C(F)(F)F)c(F)c2)c1Cl [Example 45, N-(4-((2-amino-3-chloropyridin-4-yl)oxy)-2-fluorophenyl)-1-phenyl-5-(trifluoromethyl)-1H-pyrazole-4-carboxamide] | 50 to 500 nM | > 5 µM |
| Nc1ncnc(Oc2ccc(NC(=O)c3cnn(-c4ccccc4)c3C(F)(F)F)cc2F)c1Cl [Example 46, N-(4-((6-amino-5-chloro-pyrimidin-4-yl)oxy)-3-fluorophenyl)-1-phenyl-5-(trifluoromethyl)-1H-pyrazole-4-carboxamide] | 50 to 500 nM | > 5 µM |
| CCc1c(C(=O)Nc2ccc(Oc3ncnc(N)c3Cl)c(F)c2)cnn1-c1ccccc1 [Example 47] | 50 to 500 nM | > 5 µM |
| Cc1nn(-c2ccccc2)c(C)c1C(=O)Nc1ccc(Oc2ncnc(N)c2Cl)c(F)c1 [Example 48, N-(4-((6-amino-5-chloro-pyrimidin-4-yl)oxy)-3-fluorophenyl)-3,5-dimethyl-1-phenyl-1H-pyrazole-4-carboxamide] | 50 to 500 nM | > 5 µM |
